Data: US6610299B1, “Glycosyl-etoposide prodrugs, a process for preparation thereof and the use thereof in combination with functionalized tumor-specific enzyme conjugates” (Aventis Pharma Deutschland GmbH, priority 1989, dated 2003)

Tests used:
[1] = system: tumor-specific antibody-glucosidase conjugate; settings: in vitro
alpha-glucosidase = settings: in vitro, enzyme alpha-glucosidase
[2] = molecular target: T1, 431/26 hum VH huβGlc 1H fusion protein (Homo sapiens, UniProt P01860+P08236); test: prodrug cleavage by β-glucuronidase (fusion protein), HPLC; format: biochemical
T1 construct: made in house; host or cells: BHK cells
Description: (§1) It was shown in Example 17 that the β-glucuronidase portion of the fusion protein is able, like the native human enzyme, to cleave the β-glucuronide of 4-methylumbelliferol. In the investigations which are described hereinafter, the substrate used for the enzymatic cleavage was a β-glucuronide, linked via a spacer group, of the cytostatic daunomycin. The specific procedure for these investigations was as follows:
(§2) 4 mg of the compound N-(4-hydroxy-3-nitrobenzyloxy-carbonyl)daunorubicin β-D-glucuronide (prodrug), which is described in French Patent Application (No. d'Enregistrement National: 9105326) were dissolved in 1 ml of 20 mM phosphate buffer, pH 7.2. 35 μl of the fusion protein (Example 21) or of human β-glucuronidase (total concentration in each case 6.5 U/ml; 1 U=cleavage of 1 μmol of 4-methyl-umbelliferol/min at 37° C.) were pipetted into 5 μl portions of this substrate solution and incubated in the dark at 37° C. Samples (5 μl) of the incubation mixture were removed after various times and immediately analyzed by high pressure liquid chromatography under the following conditions:
(§3) Nucleosil 100 RP 18, 5 μm particle diameter, 125×4.6 mm
(§4) Gradient of solution A (100% acetonitrile) and solution B (20 mM phosphate buffer pH.3.0)
(§5) Detection: fluorescence, excitation 495 nm, emission […]
(§6) Data analysis: Beckman System Gold Software

human β-glucuronidase = molecular target: T2, human β-glucuronidase (Homo sapiens, UniProt P08236); test: prodrug cleavage by β-glucuronidase (human, recombinant), HPLC; format: biochemical
T2 sequence (P08236 23-651): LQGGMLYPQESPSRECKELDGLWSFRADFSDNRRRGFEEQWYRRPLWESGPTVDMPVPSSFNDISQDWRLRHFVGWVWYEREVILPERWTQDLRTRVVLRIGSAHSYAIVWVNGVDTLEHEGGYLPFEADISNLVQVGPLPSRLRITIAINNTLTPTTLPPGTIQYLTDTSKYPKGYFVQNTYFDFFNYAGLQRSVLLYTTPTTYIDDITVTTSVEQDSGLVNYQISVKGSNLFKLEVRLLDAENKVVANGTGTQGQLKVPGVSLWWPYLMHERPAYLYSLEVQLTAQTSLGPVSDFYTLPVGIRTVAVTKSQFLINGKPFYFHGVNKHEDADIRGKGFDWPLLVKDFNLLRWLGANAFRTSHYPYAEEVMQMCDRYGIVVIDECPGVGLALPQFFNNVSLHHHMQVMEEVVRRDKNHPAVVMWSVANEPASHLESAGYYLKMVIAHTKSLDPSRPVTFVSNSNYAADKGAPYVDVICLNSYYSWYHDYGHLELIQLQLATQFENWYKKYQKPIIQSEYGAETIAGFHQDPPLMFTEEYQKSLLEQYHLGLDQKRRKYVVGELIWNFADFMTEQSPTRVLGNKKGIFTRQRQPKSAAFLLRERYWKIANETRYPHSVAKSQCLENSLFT
Description: as §1, §2, §3, §4, §5, §6

T1 sequence (P01860+P08236 fused): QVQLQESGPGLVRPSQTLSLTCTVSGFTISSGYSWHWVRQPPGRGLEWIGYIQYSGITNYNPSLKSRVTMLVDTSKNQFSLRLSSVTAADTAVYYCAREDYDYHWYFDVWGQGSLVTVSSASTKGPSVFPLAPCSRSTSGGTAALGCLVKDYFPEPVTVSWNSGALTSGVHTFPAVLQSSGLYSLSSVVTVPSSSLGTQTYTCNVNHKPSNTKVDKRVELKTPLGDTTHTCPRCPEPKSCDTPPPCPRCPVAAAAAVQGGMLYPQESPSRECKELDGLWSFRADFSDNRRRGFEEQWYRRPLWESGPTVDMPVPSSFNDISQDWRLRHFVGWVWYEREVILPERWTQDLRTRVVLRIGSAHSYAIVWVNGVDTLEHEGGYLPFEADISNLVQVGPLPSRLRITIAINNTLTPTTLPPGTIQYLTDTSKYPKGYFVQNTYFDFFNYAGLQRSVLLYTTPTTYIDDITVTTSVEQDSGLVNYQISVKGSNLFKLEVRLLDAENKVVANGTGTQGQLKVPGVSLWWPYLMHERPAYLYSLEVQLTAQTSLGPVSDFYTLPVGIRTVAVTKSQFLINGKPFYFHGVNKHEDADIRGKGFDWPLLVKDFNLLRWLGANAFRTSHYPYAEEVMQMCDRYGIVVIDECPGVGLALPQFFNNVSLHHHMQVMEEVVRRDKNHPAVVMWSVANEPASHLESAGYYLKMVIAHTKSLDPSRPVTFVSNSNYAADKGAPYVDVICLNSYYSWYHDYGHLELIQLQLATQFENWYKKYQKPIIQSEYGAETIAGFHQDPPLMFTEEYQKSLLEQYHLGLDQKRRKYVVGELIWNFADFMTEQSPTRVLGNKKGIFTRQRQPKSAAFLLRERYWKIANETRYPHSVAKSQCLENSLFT

4′-O-alpha-D-glucopyranosyl-etoposide
cleavage into etoposide and D-glucose [1]: can be cleaved in vitro into etoposide and D-glucose
cleavage into etoposide and D-glucose (alpha-glucosidase): can be cleaved in vitro into etoposide and D-glucose

COc1cccc2c1C(=O)c1c(O)c3c(c(O)c1C2=O)C[C@@](O)(C(C)=O)C[C@@H]3O[C@H]1C[C@H](NC(=O)OCc2ccc(O[C@@H]3O[C@H](C(=O)O)[C@@H](O)[C@H](O)[C@H]3O)c([N+](=O)[O-])c2)[C@H](O)[C@H](C)O1 [Prodrug, N-(4-hydroxy-3-nitrobenzyloxy-carbonyl)daunorubicin β-D-glucuronide]
DNM area % (liberated daunomycin) ([2]; t 0 min): 1.1 area %
Prodrug area % ([2]; t 0 min): 98.9 area %
DNM area % (liberated daunomycin) ([2]; t 50 min): 18.9 area %
Prodrug area % ([2]; t 50 min): 81.1 area %
DNM area % (liberated daunomycin) ([2]; t 135 min): 48.3 area %
Prodrug area % ([2]; t 135 min): 51.7 area %
DNM area % (liberated daunomycin) ([2]; t 190 min): 67.0 area %
Prodrug area % ([2]; t 190 min): 33.0 area %
DNM area % (liberated daunomycin) ([2]; t 247 min): 78.0 area %
Prodrug area % ([2]; t 247 min): 22.0 area %
DNM area % (liberated daunomycin) ([2]; t 317 min): 87.6 area %
Prodrug area % ([2]; t 317 min): 12.4 area %
DNM area % (liberated daunomycin) (human β-glucuronidase; t 0 min): 0.8 area %
Prodrug area % (human β-glucuronidase; t 0 min): 99.2 area %
DNM area % (liberated daunomycin) (human β-glucuronidase; t 57 min): 64.0 area %
Prodrug area % (human β-glucuronidase; t 57 min): 36.0 area %
DNM area % (liberated daunomycin) (human β-glucuronidase; t 130 min): 89.7 area %
Prodrug area % (human β-glucuronidase; t 130 min): 10.3 area %
DNM area % (liberated daunomycin) (human β-glucuronidase; t 227 min): 90.7 area %
Prodrug area % (human β-glucuronidase; t 227 min): 9.3 area %
